We go through two molecules from patent US11351140B2, “Resolvin mimetic antibodies and uses thereof” (J. Craig Venter Institute, Inc., priority 2017, dated 2022).

For assay [1], the target named is T1, ERV-1 receptor (CHO-ERV-1 positive cells) (Homo sapiens, UniProt Q99788).
T1 construct: host or cells: CHO-K1/CMKLR1/Ga15 (CHO ERV1+)
T1 sequence (Q99788 1-373): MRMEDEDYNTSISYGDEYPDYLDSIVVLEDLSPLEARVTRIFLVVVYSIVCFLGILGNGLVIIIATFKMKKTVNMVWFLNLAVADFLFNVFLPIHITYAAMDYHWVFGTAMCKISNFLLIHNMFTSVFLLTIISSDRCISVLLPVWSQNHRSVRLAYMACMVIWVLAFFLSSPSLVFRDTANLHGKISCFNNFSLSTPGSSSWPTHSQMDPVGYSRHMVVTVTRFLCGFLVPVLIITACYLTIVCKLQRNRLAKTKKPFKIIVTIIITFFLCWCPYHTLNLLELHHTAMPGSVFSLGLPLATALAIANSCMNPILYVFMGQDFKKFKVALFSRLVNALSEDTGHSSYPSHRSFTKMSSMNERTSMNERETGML
Nature of the assay: Intracellular calcium signaling (Calcium5 FLIPR) in CHO ERV1+ cells. In kind it is cell-based. To be noted: 1, 10, 100 nM.
Procedure: To investigate calcium mobilization, cells were transferred to a 96-well plate at density of 60,000 cells per well in 80 μl of growth medium 18 hours prior to the day of experiment and maintained at 37° C./5% CO2.
After aspiration of the media, cells were labeled with the fluorescent probe, Calcium5 FLIPR (Medical Devices). After agonist treatment, detection of changes in fluorescence were detected by microplate reader and expressed as change in relative fluorescence units (ΔRFU).
To investigate calcium mobilization, CHO ERV1+ cells were transferred to a 96-well plate at density of 60,000 cells per well in 80 μl of growth medium 18 hours prior to the day of experiment and maintained at 37° C./5% CO2. After aspiration of the media, cells were labeled with the fluorescent probe, Calcium5 FLIPR (Medical Devices). After agonist treatment, detection of changes in fluorescence were detected by microplate reader and expressed as change in relative fluorescence units (ARFU).
To determine whether the immune complexes between ERV-1 receptor and various anti-ERV-1 antibodies permit the bound immune complex to interact with ERV-1 cellular receptor functions, an in vitro assay was devised. To that end, calcium intracellular signaling was measured upon agonist ligand binding. […] After 20 seconds, calcium mobilization was measured through fluorescence (FIG. 15). […]

The subject of a further assay is ERV1tg mice. Description: Zymosan-induced peritonitis, peritoneal lavage cells by flow cytometry. In kind it is in vivo. To be noted: injected together with zymosan; 12 hours of inflammation. As for the experimental part:
Cells were extracted from peritoneal exudates collected after 12 hours of intraperitoneal injection of zymosan-A (1 mg/ml in PBS). Isolated cells were incubated with anti-Fc receptor (BD) blocking antibody (5 μg/ml×106 cells, 15 min) and then labeled with anti-human ERV1 alexafluor 488-conjugated antibody (10 μg/ml×106 cells, 1 hour at RT) or anti-IgG alexafluor 488 (isotype control, R&D Systems). Expression of ERV1 on neutrophils was evaluated by immunofluorescence and quantified by flow cytometry. ERV-1, […] positive monocytes were stained with PE-conjugated anti-mouse Arg-1 and FITC-conjugated anti-mouse EGR-(10 μg/ml×106 cells, 1 hour at RT) (BD Biosciences).
Peritonitis was initiated by zymosan particle injections […] to ERV1tg mice peritoneal tissues. It had been previously established that Resolvin-E1 could affect inflammation-related responses in an ERV-1 dependent manner in vivo in cells derived from diabetic subjects (Freire, M. et al., J. Immunol. 198(2):718-728 (2017)). To further understand the biological response induced by resolvimabs, purified clones were injected together with the zymosan stimuli (FIGS. 9A-D). […] We have looked if these compound would influence the phenotype of neutrophils and monocytes after 12 hours of inflammation in vivo.

Take `CC[C@@H](O)/C=C/C=C\C[C@@H](O)/C=C/C=C/C=C\[C@@H](O)CCCC(=O)O` [resolvinE-1, resolvin E1]: the “agonist functions (calcium intracellular signaling)” value in assay [1] is on record as “found”.

B1: C4: resolvimab, anti-ERV-1 monoclonal antibody; VH SEQ ID NO: 14, VK SEQ ID NO: 16 (antibody, V domains shown)
VH: EVKLEESGAELVMPGASVKLSCKASGYTFTSYWMHWVKQRPGQGLEWVAEIDPSDSYTNYNQKFKGKATLTVDKSSSTAYMQLSSLTSEDSAVYYCARDGDILTTVVAKGFVYWGQGTLV
VL: LSLPVSLGDQASISCRSSQTIVHSNGNTYLEWYLQKPGQSPKLLIYKVSNRFSGVPDRFSGSGSGTDFTLKISRVEAEDLGVYYCFQGSHVPWTFGGGTKLEIK
modifications: Immunoglobulin VH Region; Immunoglobulin VL(K) region
Regarding B1, the “inflammatory infiltrate (flow cytometry quantification)” value with ERV1tg mice is recorded as “decrease”.
